Assays:
Assay in all cases: relative viability (nuclei count vs DMSO), 5 days (fraction); higher = more cells survive
201T = system: 201T
How it was run: (§1)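 Five library-drug doses in √10 steps were combined with a fixed anchor-drug dose, or a single drug was given alone, by pin tool to lung cancer cell lines in 1536-well plates the day after seeding. Nuclei were stained and counted after 5 days. Relative viability is the nuclei count in treated wells over that in vehicle wells, taken as the median of duplicate plates.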

NCI-H647 = system: NCI-H647
How it was run: as §1

HCC-15 = system: HCC-15
How it was run: as §1

COR-L 105 = system: COR-L 105
How it was run: as §1

NCI-H1651 = system: NCI-H1651
How it was run: as §1

EKVX = system: EKVX
How it was run: as §1

NCI-H661 = system: NCI-H661
How it was run: as §1

H3255 = system: H3255
How it was run: as §1

ABC-1 = system: ABC-1
How it was run: as §1

COR-L23 = system: COR-L23
How it was run: as §1

NCI-H1650 = system: NCI-H1650
How it was run: as §1

NCI-H1437 = system: NCI-H1437
How it was run: as §1

LCLC-103H = system: LCLC-103H
How it was run: as §1

HCC-44 = system: HCC-44
How it was run: as §1

NCI-H2087 = system: NCI-H2087
How it was run: as §1

HCC-827 = system: HCC-827
How it was run: as §1

NCI-H520 = system: NCI-H520
How it was run: as §1

NCI-H727 = system: NCI-H727
How it was run: as §1

EPLC-272H = system: EPLC-272H
How it was run: as §1

NCI-H1975 = system: NCI-H1975
How it was run: as §1

NCI-H358 = system: NCI-H358
How it was run: as §1

UMC-11 = system: UMC-11
How it was run: as §1

Question: Which relative viability (201T; first compound 5 µM) does the source give for `O=C(O)CCCCC(CCSCc1ccccc1)SCc1ccccc1` (stereo not given) [CPI-613] + O=C(CCCCCCC(=O)Nc1ccccc1)NO [Vorinostat] (partner 1 µM) here?
Answer: 0.961

Question: What about the relative viability (201T; first compound 15.81 µM) of the same compound?
Answer: 0.865

Question: What about the relative viability (201T; first compound 50 µM) of the same compound?
Answer: 0.958

Question: What about the relative viability (201T; first compound 158.11 µM) of the same compound?
Answer: 0.328

Question: What about the relative viability (201T; first compound 500 µM) of the same compound?
Answer: 0.368

Question: What about the relative viability (NCI-H647; first compound 5 µM) of the same compound?
Answer: 0.598

Question: What about the relative viability (NCI-H647; first compound 15.81 µM) of the same compound?
Answer: 0.568

Question: And the relative viability (NCI-H647; first compound 50 µM)?
Answer: 0.303

Question: What about the relative viability (NCI-H647; first compound 158.11 µM) of the same compound?
Answer: 0.0385

Question: What about the relative viability (NCI-H647; first compound 500 µM) of the same compound?
Answer: 0.014

Question: And the relative viability (HCC-15; first compound 5 µM)?
Answer: 0.801

Question: What about the relative viability (HCC-15; first compound 15.81 µM) of the same compound?
Answer: 0.774

Question: What about the relative viability (HCC-15; first compound 50 µM) of the same compound?
Answer: 0.779

Question: And the relative viability (HCC-15; first compound 158.11 µM)?
Answer: 0.181

Question: And the relative viability (HCC-15; first compound 500 µM)?
Answer: 0.0657

Question: And the relative viability (COR-L 105; first compound 5 µM)?
Answer: 0.765

Question: And the relative viability (COR-L 105; first compound 15.81 µM)?
Answer: 0.675

Question: What about the relative viability (COR-L 105; first compound 50 µM) of the same compound?
Answer: 1.04

Question: And the relative viability (COR-L 105; first compound 158.11 µM)?
Answer: 0.375

Question: And the relative viability (COR-L 105; first compound 500 µM)?
Answer: 0.261

Question: And the relative viability (NCI-H1651; first compound 5 µM)?
Answer: 0.583

Question: And the relative viability (NCI-H1651; first compound 15.81 µM)?
Answer: 0.528

Question: And the relative viability (NCI-H1651; first compound 50 µM)?
Answer: 0.528

Question: What about the relative viability (NCI-H1651; first compound 158.11 µM) of the same compound?
Answer: 0.438

Question: What about the relative viability (NCI-H1651; first compound 500 µM) of the same compound?
Answer: 0.542

Question: And the relative viability (EKVX; first compound 5 µM)?
Answer: 0.695

Question: What about the relative viability (EKVX; first compound 15.81 µM) of the same compound?
Answer: 0.668

Question: What about the relative viability (EKVX; first compound 50 µM) of the same compound?
Answer: 0.637

Question: And the relative viability (EKVX; first compound 158.11 µM)?
Answer: 0.258

Question: And the relative viability (EKVX; first compound 500 µM)?
Answer: 0.429

Question: And the relative viability (NCI-H661; first compound 5 µM)?
Answer: 0.702

Question: And the relative viability (NCI-H661; first compound 15.81 µM)?
Answer: 0.702

Question: What about the relative viability (NCI-H661; first compound 50 µM) of the same compound?
Answer: 0.802

Question: And the relative viability (NCI-H661; first compound 158.11 µM)?
Answer: 0.423

Question: What about the relative viability (NCI-H661; first compound 500 µM) of the same compound?
Answer: 0.147

Question: And the relative viability (H3255; first compound 5 µM)?
Answer: 0.765

Question: And the relative viability (H3255; first compound 15.81 µM)?
Answer: 0.796

Question: What about the relative viability (H3255; first compound 50 µM) of the same compound?
Answer: 0.639

Question: What about the relative viability (H3255; first compound 158.11 µM) of the same compound?
Answer: 0.821

Question: And the relative viability (H3255; first compound 500 µM)?
Answer: 0.716

Question: What about the relative viability (ABC-1; first compound 5 µM) of the same compound?
Answer: 1.21

Question: What about the relative viability (ABC-1; first compound 15.81 µM) of the same compound?
Answer: 0.811

Question: What about the relative viability (ABC-1; first compound 50 µM) of the same compound?
Answer: 0.995

Question: And the relative viability (ABC-1; first compound 158.11 µM)?
Answer: 0.701

Question: What about the relative viability (ABC-1; first compound 500 µM) of the same compound?
Answer: 0.318

Question: And the relative viability (COR-L23; first compound 5 µM)?
Answer: 0.42

Question: What about the relative viability (COR-L23; first compound 15.81 µM) of the same compound?
Answer: 0.387

Question: And the relative viability (COR-L23; first compound 50 µM)?
Answer: 0.371

Question: What about the relative viability (COR-L23; first compound 158.11 µM) of the same compound?
Answer: 0.125

Question: What about the relative viability (COR-L23; first compound 500 µM) of the same compound?
Answer: 0.0123

Question: And the relative viability (NCI-H1650; first compound 5 µM)?
Answer: 0.521

Question: And the relative viability (NCI-H1650; first compound 15.81 µM)?
Answer: 0.469

Question: What about the relative viability (NCI-H1650; first compound 50 µM) of the same compound?
Answer: 0.507

Question: What about the relative viability (NCI-H1650; first compound 158.11 µM) of the same compound?
Answer: 0.142

Question: What about the relative viability (NCI-H1650; first compound 500 µM) of the same compound?
Answer: 0.0205

Question: And the relative viability (NCI-H1437; first compound 5 µM)?
Answer: 0.803

Question: And the relative viability (NCI-H1437; first compound 15.81 µM)?
Answer: 0.637

Question: And the relative viability (NCI-H1437; first compound 50 µM)?
Answer: 0.689

Question: What about the relative viability (NCI-H1437; first compound 158.11 µM) of the same compound?
Answer: 0.093

Question: And the relative viability (NCI-H1437; first compound 500 µM)?
Answer: 0.0541

Question: And the relative viability (LCLC-103H; first compound 5 µM)?
Answer: 0.731

Question: What about the relative viability (LCLC-103H; first compound 15.81 µM) of the same compound?
Answer: 0.662

Question: What about the relative viability (LCLC-103H; first compound 50 µM) of the same compound?
Answer: 0.771

Question: What about the relative viability (LCLC-103H; first compound 158.11 µM) of the same compound?
Answer: 0.683

Question: And the relative viability (LCLC-103H; first compound 500 µM)?
Answer: 0.207

Question: What about the relative viability (HCC-44; first compound 5 µM) of the same compound?
Answer: 1.01

Question: And the relative viability (HCC-44; first compound 15.81 µM)?
Answer: 1.11

Question: What about the relative viability (HCC-44; first compound 50 µM) of the same compound?
Answer: 1.08

Question: And the relative viability (HCC-44; first compound 158.11 µM)?
Answer: 0.579

Question: And the relative viability (HCC-44; first compound 500 µM)?
Answer: 0.265

Question: And the relative viability (NCI-H2087; first compound 5 µM)?
Answer: 0.817

Question: What about the relative viability (NCI-H2087; first compound 15.81 µM) of the same compound?
Answer: 0.725

Question: And the relative viability (NCI-H2087; first compound 50 µM)?
Answer: 0.689

Question: What about the relative viability (NCI-H2087; first compound 158.11 µM) of the same compound?
Answer: 0.374

Question: And the relative viability (NCI-H2087; first compound 500 µM)?
Answer: 0.0093

Question: And the relative viability (HCC-827; first compound 5 µM)?
Answer: 0.769

Question: What about the relative viability (HCC-827; first compound 15.81 µM) of the same compound?
Answer: 0.703

Question: What about the relative viability (HCC-827; first compound 50 µM) of the same compound?
Answer: 0.773

Question: And the relative viability (HCC-827; first compound 158.11 µM)?
Answer: 0.497

Question: What about the relative viability (HCC-827; first compound 500 µM) of the same compound?
Answer: 0.656

Question: What about the relative viability (NCI-H520; first compound 5 µM) of the same compound?
Answer: 0.831

Question: And the relative viability (NCI-H520; first compound 15.81 µM)?
Answer: 0.693

Question: And the relative viability (NCI-H520; first compound 50 µM)?
Answer: 0.657

Question: And the relative viability (NCI-H520; first compound 158.11 µM)?
Answer: 0.325

Question: And the relative viability (NCI-H520; first compound 500 µM)?
Answer: 0.11

Question: And the relative viability (NCI-H727; first compound 5 µM)?
Answer: 1.1

Question: What about the relative viability (NCI-H727; first compound 15.81 µM) of the same compound?
Answer: 1.07

Question: What about the relative viability (NCI-H727; first compound 50 µM) of the same compound?
Answer: 1.04

Question: What about the relative viability (NCI-H727; first compound 158.11 µM) of the same compound?
Answer: 1.01

Question: And the relative viability (NCI-H727; first compound 500 µM)?
Answer: 0.642

Question: What about the relative viability (EPLC-272H; first compound 5 µM) of the same compound?
Answer: 0.509

Question: And the relative viability (EPLC-272H; first compound 15.81 µM)?
Answer: 0.406

Question: What about the relative viability (EPLC-272H; first compound 50 µM) of the same compound?
Answer: 0.268

Question: And the relative viability (EPLC-272H; first compound 158.11 µM)?
Answer: 0.0975

Question: What about the relative viability (EPLC-272H; first compound 500 µM) of the same compound?
Answer: 0.0196

Question: And the relative viability (NCI-H1975; first compound 5 µM)?
Answer: 0.73

Question: What about the relative viability (NCI-H1975; first compound 15.81 µM) of the same compound?
Answer: 0.735

Question: And the relative viability (NCI-H1975; first compound 50 µM)?
Answer: 0.692

Question: What about the relative viability (NCI-H1975; first compound 158.11 µM) of the same compound?
Answer: 0.24

Question: And the relative viability (NCI-H1975; first compound 500 µM)?
Answer: 0.0367

Question: What about the relative viability (NCI-H358; first compound 5 µM) of the same compound?
Answer: 0.683

Question: What about the relative viability (NCI-H358; first compound 15.81 µM) of the same compound?
Answer: 0.561

Question: And the relative viability (NCI-H358; first compound 50 µM)?
Answer: 0.62

Question: And the relative viability (NCI-H358; first compound 158.11 µM)?
Answer: 0.0809

Question: And the relative viability (NCI-H358; first compound 500 µM)?
Answer: 0.0166

Question: What about the relative viability (UMC-11; first compound 5 µM) of the same compound?
Answer: 0.355

Question: What about the relative viability (UMC-11; first compound 15.81 µM) of the same compound?
Answer: 0.358

Question: What about the relative viability (UMC-11; first compound 50 µM) of the same compound?
Answer: 0.39

Question: What about the relative viability (UMC-11; first compound 158.11 µM) of the same compound?
Answer: 0.126

Question: What about the relative viability (UMC-11; first compound 500 µM) of the same compound?
Answer: 0.1
